{"source": "patent US20260191803A1", "about": "“SYSTEM AND METHOD FOR THE TREATMENT OF TELOGEN EFFLUVIUM AND CHEMOTHERAPY INDUCED ALOPECIA” (Follea International, priority 2025, published 2026)", "system": "hair shedding", "experiment": "Example 5: hair shedding, hairs removed with brush after 10% phenylephrine or placebo", "type": "in vivo, human", "settings": "average of 15 patients; versus placebo", "text": "Patients: Fifteen female subjects, ages 18-40, were included in the study. Subjects were recruited based on telogen effluvium diagnosis. Subjects with uncontrolled hypertension, that were pregnant or breastfeeding, had been diagnosed with pattern hair loss or with other hair loss in conjunction with female pattern hair loss were excluded from the study.\nHair Shedding: To measure hair shedding, a 4-day protocol was designed. On the first day patients were instructed to wash their hair and use styling products and procedures as they normally would. On the second day, patients were instructed not to wash their hair and to apply 0.5 mL of a placebo solution, containing a vehicle only, on the frontal area of the scalp in an 8×10 cm2 target area. Patients were instructed to wait 45 minutes, after which, they brushed their hair 20 times from the front of the scalp to the bottom of head using a new brush. After the procedure, the brushes were sealed in a plastic bag. On day three, patients were instructed to wash their hair and use styling products and procedures as they normally would. […] After each clinical procedure, the investigator counted the hairs collected on each brush. A new brush was used for each procedure."}
{"smiles": "CNC[C@H](O)c1cccc(O)c1", "note": "[phenylephrine]", "values": [{"measurement": "Average reduction in hair loss", "value": "approximately 42%"}]}
